The values below come from patent US20030095982A1, “Fraction of Cordyceps sinensis and method of isolation thereof” (priority 2001, published 2003).

Series [1] has as its system IFNγ (Th-1 related), IL-4, IL-5, IL-10 (Th-2 related) and iNOS mRNA. The series is described as follows: Cytokine and iNOS mRNA in lung tissue by RT-PCR. Type of series: in vivo, brown Norway rats (BNR). The settings on record: prophylactic and therapeutic treatment, OA asthma model. Here is the method:
The in vivo role of F-4 and F8 of Th1/Th2 cytokines by […] mRNA in lung tissue and nuclear factor (NF)κ B activity using an electromobility shift assay (EMSA)
Total RNA was extracted from lung tissue samples by a method described previously and RT-PCR was performed using a RT-PCR kit (Clontech, USA). The following T-cell related cytokines were evaluated by measuring their mRNA expression: IFNγ (Th-1 related) and IL-4, IL-5 and IL-10 (all Th-2 related) and inducible nitric oxide synthase (iNOS).
Briefly, 2 μg of RNA in a 25 μl volume was first primed with 2 μl oligo-(dT)18 primer, 20 μM, at 70° C. for 2 min and then kept on ice for 5 min. after the reaction, a mixture containing the following: 8 μl of 5×reaction buffer; 2 μl, dNTP mix […] (each); 1 μl recombinant Rnase inhibitor, 40 units/μ1; and 2 μl MMLV reverse transcriptase, 200 units/μ1, was added to synthesize cDNA. cDNA was amplified by 40 PCR cycles; each consisting of a denaturation step (94° C. for 1 min), an annealing step (65˜55° C. for 1 min, 0.5° C./cycle touch down, 55° C. for 19 cycles), and an extension step (72° C. for 1 min). During the last cycle the 72° C. step was extended to 5 min. The PCR product was analyzed on 2% agarose gel electrophoresis. The identity of each cytokine cDNA was determined by the size of the PCR product obtained by electrophoresis, and confirmed by DNA sequencing of the PCR products. […]

A further series relates to ICR mice. Put plainly: Acute toxicity test in ICR mice. Type of series: in vivo. The settings on record: normal diet with 2% ratio, killed after 7 days. The source says: The methodology used to carry out acute toxicity testing for this invention was as follows: ICR mice that had been fed on a normal diet with the above active compound included to constitute a 2% ratio were killed after 7 days in order to ascertain whether there was any evidence of toxicity.
B: Compound F8: This refers to F8 (for spectroscopic and structural data, see FIG. 2a, 2b, and 3). The molecular formula of compound F8 is C28H46O3. To confirm the potential applicability of the above fractions and to check for obvious toxicity or mutagenicity, Ames test and acute toxicity test were conducted on white mice (ICR-mice) using the F4 fraction or compound F8.

The subject of series [2] is platelet aggregation induced by PAF. Put plainly: PAF induced rabbit platelet aggregation in vitro. Type of series: cell-based. The settings on record: 0.625 mM; washed rabbit platelets; PAF 2 nM; preincubated 2 min. The source says:
In terms of inhibition, PAF induced rabbit platelete aggregation is used as an index of PAF function inhibition. It was used as the first step in vitro screening method for identifying potential substances which are capable of inhibiting PAF function and may improve bronchial hyperresponsiveness in vivo.
Washed platelets were obtained from rabbits. In brief, rabbit blood was collected from the marginal ear vein into tubes containing one-sixth volume of acid-citrate-dextrose as anticoagulant. The blood was centrifuged at 200×g for 15 min at room temperature. The platelet-rich plasma was mixed with 1/40 volume of EDTA (final concentration 5 mM) and re-centrifuged at 1000×g for 12 min. The supernatant was discarded and the platelet pellet was suspended in modified Ca^2+-free Tyrode's buffer (137 mM NaCl, 2.8 mM KCl, 2 mM MgCl2, 0.33 mM NaH2PO4, 5 mM glucose, 10 mM HEPES) with 0.35% bovine serum albumin, heparin (50 unit/ml) and apyrase (1 unit/ml). Following incubation at 37° C. for 20 min, the washed platelet pellet was resuspended in Tyrode's buffer containing 1 mM Ca^2+. The platelet number were counted by using a hemocytometer and adjusted to 3.5×10^8 platelets/ml. […] Aggregation was measured by a turbidimetric method. […] The inhibitory activities of F-4 and F-8 on platelet aggregation induced by PAF were calculated according the equation: [formula]

With `CC(C)[C@@H](C)C=C[C@@H](C)[C@H]1CC[C@H]2C3=C[C@@H](O)[C@@]4(O)C[C@@H](O)CC[C@]4(C)[C@H]3CC[C@]12C` [F8, (24R)-ergosta-7,22-diene-3β, 5α, 6β,-triol], in series [1], the Th1 cytokines expression result is on record as “enhance Th1 cytokines expression”; the “Th2 cytokines and iNOS gene mRNA expression” value was “decrease Th2 cytokines and INOS gene mRNA expression”. Also, the acute toxicity result in the series on ICR mice is “no obvious evidence of toxicity or mutagenic properties”. For the same compound, the “Inhibitory Activity (%)” value in series [2] was determined as 97±2.6%.
